Experimental data taken from US20220107328A1, “METHODS OF TREATING LIVER DISEASES” (Camp4 Therapeutics Corporation, priority 2018, published 2022).

Tests used:
PNPLA3 mRNA [1] = test: qRT-PCR of PNPLA3 mRNA in compound-treated mouse hepatocytes; assay type: cell-based; conditions: for Relative PNPLA3 mRNA levels: mouse hepatocytes, 1 μM, normalized to ACTB
PNPLA3 mRNA [2] = test: qRT-PCR of PNPLA3 mRNA in human primary hepatic stellate cells; assay type: cell-based; conditions: for Primary Stellate cells PNPLA3 (fold change in mRNA expression): 3 μM, relative to GAPDH; for Relative PNPLA3 mRNA levels RQ: hepatic stellate cells; for Relative PNPLA3 mRNA expression: stellate cells, Table 37
COL1A1 mRNA = test: qRT-PCR of COL1A1 mRNA in human primary hepatic stellate cells; assay type: cell-based; conditions: for Primary Stellate cells COL1A1 (fold change in mRNA expression): 3 μM, relative to GAPDH; for Relative COL1A1 mRNA levels RQ: hepatic stellate cells
PCSK9 mRNA = test: qRT-PCR of PCSK9 mRNA in primary hepatocytes; assay type: cell-based, human; conditions: donor 4178, 3 μM, relative to GUSB
PNPLA3 mRNA [3] = test: qRT-PCR of PNPLA3 mRNA in compound-treated primary human hepatocytes; conditions: for Relative PNPLA3 mRNA levels: mTOR pathway inhibitors, 10 μM, human hepatocytes, qRT-PCR, mean of three replicates ± standard deviation; for Relative PNPLA3 mRNA expression: primary human hepatocytes, Table 35; for mrna remaining at 10 µM / mrna remaining at 1 µM: Homo sapiens, Hepatocyte
PNPLA3 expression = test: RNA-seq of compound-treated primary human hepatocytes; assay type: cell-based; conditions: PNPLA3 expression, RNA-seq
Description: Cryopreserved hepatocytes were cultured in plating media for 16 hours, transferred to maintenance media for 4 hours. Cultured on serum-free media for 2 hours, then a compound was added. The hepatocytes were maintained on the serum-free media for 16 hours prior to gene expression analysis.
Human hepatocytes cultured as described above were plated in 24-well format, adding 375,000 cells per well in a volume of 500 μl plating medium. Four hours before treatment, cells were washed with PBS and the medium was changed to either: fresh maintenance medium (complete) or modified maintenance medium.
Compound stocks were prepared at 1000× final concentration and added in a 2-step dilution to the medium to reduce risk of a compound precipitating out of solution when added to the cells, and to ensure reasonable pipetting volumes. One at a time, each compound was first diluted 10-fold in warm (about 37° C.) modified maintenance medium (initial dilution=ID), mixed by vortexing, and the ID was diluted 100-fold into the cell culture (e.g. 5.1 μl into 1 well of a 24-well plate containing 0.5 mL medium). The plate was mixed by carefully swirling and after all wells were treated and returned to the incubator overnight. If desired, separate plates/wells were treated with vehicle-only controls and/or positive controls. If using multi-well plates, controls were included on each plate. After about 18 hours, cells were harvested for further analysis, e.g., ChIP-seq, RNA-seq, ATAC-seq, etc.
The expression level of each gene was quantified with normalized FPKM (fragments per kilobase of exon per million mapped fragments). The differentially expressed genes were called using Cuffdiff v2.2.1 with q value<0.01 and log2 fold change>=1 or <=−1.
To identify small molecules that modulate PNPLA3, primary human hepatocytes were prepared as a monoculture, and at least one small molecule compound was applied to the cells.
RNA-seq was performed to determine the effects of the compounds on PNPLA3 expression in hepatocytes. Fold change was calculated by dividing the level of expression in the cell system that had been perturbed by the level of expression in an unperturbed system. Changes in expression having a p-value≤0.05 were considered significant.

Question: How did the “Relative PNPLA3 mRNA levels” value (PNPLA3 mRNA [1]) turn out when `COc1ccc(-c2ccc3c(N4CCOC[C@@H]4C)nc(N4CCOC[C@@H]4C)nc3n2)cc1CO` [AZD-8055] was run?
Answer: 0.21 ± 0.11

Question: And the “Primary Stellate cells PNPLA3 (fold change in mRNA expression)” value (PNPLA3 mRNA [2])?
Answer: 0.36

Question: What about the “Relative PNPLA3 mRNA levels RQ” value (PNPLA3 mRNA [2]; 0.01 μM) of the same molecule?
Answer: 0.38

Question: What about the “Relative PNPLA3 mRNA levels RQ” value (PNPLA3 mRNA [2]; 0.1 μM) of the same molecule?
Answer: 0.44

Question: What about the “Relative PNPLA3 mRNA levels RQ” value (PNPLA3 mRNA [2]; 1 μM) of the same molecule?
Answer: 0.45

Question: And the “Relative PNPLA3 mRNA levels RQ” value (PNPLA3 mRNA [2]; 10 μM)?
Answer: 0.39

Question: And the “Primary Stellate cells COL1A1 (fold change in mRNA expression)” value (COL1A1 mRNA)?
Answer: 0.46

Question: What about the “Relative COL1A1 mRNA levels RQ” value (COL1A1 mRNA; 0.01 μM) of the same molecule?
Answer: 0.71

Question: What about the “Relative COL1A1 mRNA levels RQ” value (COL1A1 mRNA; 0.1 μM) of the same molecule?
Answer: 0.58

Question: And the “Relative COL1A1 mRNA levels RQ” value (COL1A1 mRNA; 1 μM)?
Answer: 0.35

Question: And the “Relative COL1A1 mRNA levels RQ” value (COL1A1 mRNA; 10 μM)?
Answer: 0.27

Question: And the “Primary Hepatocytes 4178 PCSK9 (fold change in mRNA expression)” value (PCSK9 mRNA)?
Answer: 0.68

Question: What about the “Relative PNPLA3 mRNA levels” value (PNPLA3 mRNA [3]) of the same molecule?
Answer: 0.52 ± 0.16

Question: For `CN1C(=O)c2sccc2N(C)c2nc(Nc3ccc(S(N)(=O)=O)cc3)ncc21` [XMU-MP-1], which “Fold change (Log 2) vs untreated” value (PNPLA3 expression) is on record?
Answer: −0.66

Question: For `CN(c1ncccc1CNc1nc(Nc2ccc3c(c2)CC(=O)N3)ncc1C(F)(F)F)S(C)(=O)=O` [PF-00562271], which “PNPLA3 mRNA remaining after treatment compared to untreated cells” value (PNPLA3 mRNA [1]; Mouse hepatocytes, 10 uM) is on record?
Answer: 0.27

Question: What about the “PNPLA3 mRNA remaining after treatment compared to untreated cells” value (PNPLA3 mRNA [2]; Human Stellate, 1 uM) of the same molecule?
Answer: 1

Question: What about the “PNPLA3 mRNA remaining after treatment compared to untreated cells” value (PNPLA3 mRNA [2]; Human Stellate, 10 uM) of the same molecule?
Answer: 0.18

Question: And the “PNPLA3 mRNA remaining after treatment compared to untreated cells” value (PNPLA3 mRNA [3]; H Hep Donor-2, 10 uM)?
Answer: 0.34

Question: And the “PNPLA3 mRNA remaining after treatment compared to untreated cells” value (PNPLA3 mRNA [3]; H Hep Donor-3, 10 uM)?
Answer: 0.2

Question: What about the “PNPLA3 mRNA remaining after treatment compared to untreated cells” value (PNPLA3 mRNA [3]; H Hep Donor-4, 10 uM) of the same molecule?
Answer: 0.5

Question: And the “PNPLA3 mRNA remaining after treatment compared to untreated cells” value (PNPLA3 mRNA [3]; H Hep Donor-5, 1 uM)?
Answer: 1

Question: And the “PNPLA3 mRNA remaining after treatment compared to untreated cells” value (PNPLA3 mRNA [3]; H Hep Donor-5, 10 uM)?
Answer: 0.25

Question: How did the “Fold change (Log 2) vs untreated” value (PNPLA3 expression) turn out when `COc1nc(N)nc2c1ncn2[C@@H]1O[C@H](COP(=O)(N[C@@H](C)C(=O)OCC(C)(C)C)Oc2cccc3ccccc23)[C@@H](O)[C@@]1(C)O` (stereo partly drawn) [BMS-986094] was run?
Answer: −0.69

Question: What does the source list for `COc1cc2c(cc1OC)CN(C(=O)/C=C/c1c(-c3ccccc3)n(C)c3ncccc13)CC2` [SIS3]?
Answer: PNPLA3 mRNA remaining after treatment compared to untreated cells (PNPLA3 mRNA [1]; Mouse hepatocytes, 10 uM): 0.50; Relative PNPLA3 mRNA expression (PNPLA3 mRNA [2]; 0.01 uM): 1.49 ± 0.09; Relative PNPLA3 mRNA expression (PNPLA3 mRNA [2]; 0.1 uM): 1.38 ± 0.19; Relative PNPLA3 mRNA expression (PNPLA3 mRNA [2]; 1 uM): 0.77 ± 0.03; Relative PNPLA3 mRNA expression (PNPLA3 mRNA [2]; 10 uM): 7.95 ± 2.29; PNPLA3 mRNA remaining after treatment compared to untreated cells (PNPLA3 mRNA [3]; H Hep Donor-1, 10 uM): 0.2; PNPLA3 mRNA remaining after treatment compared to untreated cells (PNPLA3 mRNA [3]; H Hep Donor-2, 10 uM): 0.55; Relative PNPLA3 mRNA expression (PNPLA3 mRNA [3]; 3.3 uM): 1.358 ± 0.3303; Relative PNPLA3 mRNA expression (PNPLA3 mRNA [3]; 10 uM): 1.011 ± 0.2574

Question: With `CCNC(=O)Nc1ccc(-c2nc(N3CCOC[C@@H]3C)c3c(n2)C(C)(C)S(=O)(=O)C3)cc1` [CZ415] as the molecule, how does the “Relative PNPLA3 mRNA levels” value (PNPLA3 mRNA [1]) read?
Answer: 0.20 ± 0.11

Question: What about the “Primary Stellate cells PNPLA3 (fold change in mRNA expression)” value (PNPLA3 mRNA [2]) of the same molecule?
Answer: 0.37

Question: And the “Relative PNPLA3 mRNA levels RQ” value (PNPLA3 mRNA [2]; 0.01 μM)?
Answer: 0.87

Question: What about the “Relative PNPLA3 mRNA levels RQ” value (PNPLA3 mRNA [2]; 0.1 μM) of the same molecule?
Answer: 0.47

Question: And the “Relative PNPLA3 mRNA levels RQ” value (PNPLA3 mRNA [2]; 1 μM)?
Answer: 0.31

Question: What about the “Relative PNPLA3 mRNA levels RQ” value (PNPLA3 mRNA [2]; 10 μM) of the same molecule?
Answer: 0.35

Question: What about the “Primary Stellate cells COL1A1 (fold change in mRNA expression)” value (COL1A1 mRNA) of the same molecule?
Answer: 0.59

Question: What about the “Relative COL1A1 mRNA levels RQ” value (COL1A1 mRNA; 0.01 μM) of the same molecule?
Answer: 1.01

Question: And the “Relative COL1A1 mRNA levels RQ” value (COL1A1 mRNA; 0.1 μM)?
Answer: 0.86

Question: What about the “Relative COL1A1 mRNA levels RQ” value (COL1A1 mRNA; 1 μM) of the same molecule?
Answer: 0.28

Question: And the “Relative COL1A1 mRNA levels RQ” value (COL1A1 mRNA; 10 μM)?
Answer: 0.27

Question: What about the “Primary Hepatocytes 4178 PCSK9 (fold change in mRNA expression)” value (PCSK9 mRNA) of the same molecule?
Answer: 0.66

Question: And the “Primary Hepatocytes 4178 PNPLA3 (fold change in mRNA expression)” value (PNPLA3 mRNA [3]; donor 4178, 3 μM, relative to GUSB)?
Answer: 0.60

Question: What about the “Primary Hepatocytes 4282 PNPLA3 (fold change in mRNA expression)” value (PNPLA3 mRNA [3]; donor 4282, 3 μM, relative to GUSB) of the same molecule?
Answer: 0.70

Question: What about the “Relative PNPLA3 mRNA levels” value (PNPLA3 mRNA [3]) of the same molecule?
Answer: 0.62 ± 0.07

Question: What does the source list for `Cc1cccc(-c2nn3c(c2-c2ccnc4ccc(C(N)=O)cc24)CCC3)n1` [LY2157299 Galunisertib]?
Answer: mrna remaining at 10 µM (PNPLA3 mRNA [1]; Hepatocyte, Mouse hepatocytes, 10 uM, read-out: PNPLA3 mRNA remaining after treatment compared to untreated cells): 102%; mrna remaining at 1 µM (PNPLA3 mRNA [2]; Human Stellate, 1 uM, read-out: PNPLA3 mRNA remaining after treatment compared to untreated cells): 65%; mrna remaining at 10 µM (PNPLA3 mRNA [2]; Human Stellate, 10 uM, read-out: PNPLA3 mRNA remaining after treatment compared to untreated cells): 100%; mrna remaining at 10 µM (PNPLA3 mRNA [3]; read-out: PNPLA3 mRNA remaining after treatment compared to untreated cells, H Hep Donor-1, 10 uM): 50%; mrna remaining at 10 µM (PNPLA3 mRNA [3]; read-out: PNPLA3 mRNA remaining after treatment compared to untreated cells, H Hep Donor-2, 10 uM): 70%; mrna remaining at 10 µM (PNPLA3 mRNA [3]; read-out: PNPLA3 mRNA remaining after treatment compared to untreated cells, H Hep Donor-3, 10 uM): 80%; mrna remaining at 1 µM (PNPLA3 mRNA [3]; read-out: PNPLA3 mRNA remaining after treatment compared to untreated cells, H Hep Donor-4, 1 uM): 75%; mrna remaining at 10 µM (PNPLA3 mRNA [3]; read-out: PNPLA3 mRNA remaining after treatment compared to untreated cells, H Hep Donor-4, 10 uM): 50%; mrna remaining at 1 µM (PNPLA3 mRNA [3]; read-out: PNPLA3 mRNA remaining after treatment compared to untreated cells, H Hep Donor-5, 1 uM): 55%; mrna remaining at 10 µM (PNPLA3 mRNA [3]; read-out: PNPLA3 mRNA remaining after treatment compared to untreated cells, H Hep Donor-5, 10 uM): 50%
